Measurements as given in patent US4394382A, “Dihydrobenzopyran compounds and pharmaceutical composition comprising said compounds” (Kowa Company, Ltd., priority 1980, dated 1983).
Where a name gives a salt, the structure may show the parent alone.

Assays:
[1] = urine and electrolyte excretion, oral water load method; format: in vivo; settings: rat, over 5 hours; for Amount of urine: average ± standard deviation
Protocol: Using rats, five per group, the amount of urine and the amount of electrolytes (sodium, potassium) excreted were measured over 5 hours after oral administration of each of the drugs by an oral water load method. Each of the test drugs was suspended in a 0.5% carboxymethyl cellulose solution and orally administered. Each of the numerical values given in the table is an average value ± standard deviation.

[2] = system: Femoral blood flow (femoral artery); experiment: femoral blood flow in anesthetized dogs; format: in vivo, dog; settings: 1 to 300 μg/kg, *: an increase of about 10% as low doses, and a decrease of about 20% at high doses
Protocol: Adult dogs were anesthetized with 30 mg/kg of pentobarbital administered intravenously and ventilated artificially. The effect of the compounds Ia and Ib on hemodynamic parameters was investigated. Drugs were used dissolved in 0.1 N hydrochloric acid and administered over the 1 to 300 μg/kg dose range.
Measured with an electromagnetic flowmeter probe placed on the femoral artery.

[3] = biological target: T1, isoproterenol, atrium dextrum and atrium sinistrum (Cavia porcellus, UniProt H0W3H1); experiment: isolated atrium cordis samples, antagonistic action on isoproterenol (Magnus method); settings: guinea pig atrium, vs isoproterenol; reciprocal logarithm of molar concentration
T1 construct: Using the atrium dextrum and atrium sinistrum of a guinea pig; from tissue; host or cells: guinea pig right and left atria
Protocol: (§1) Each of the test drugs was used in a concentration of 10^-9 to 4×10^-4 mole/1000 ml (M).
(1) Isolated atrium cordis samples
Using the atrium dextrum and atrium sinistrum of a guinea pig, the contractile force and rhythem were recorded, and the antagonistic action of the test drugs on isoproterenol was examined.

isoproterenol, bronchus = biological target: T2, isoproterenol, bronchus (Cavia porcellus, UniProt Q8K4Z4); experiment: isolated bronchus sample, antagonistic action on isoproterenol (Magnus method); settings: guinea pig bronchus, vs isoproterenol, reciprocal logarithm of molar concentration
T2 construct: Using the bronchus of a guinea pig; from tissue; host or cells: guinea pig bronchus
Protocol: as §1
(2) Isolated bronchus sample
Using the bronchus of a guinea pig, the antagonistic action of the test drugs on isoproterenol was examined.

[4] = system: potassium contracture, left circumflex branch (coronary artery); experiment: isolated coronary artery, action on potassium contracture (Magnus method); settings: dog coronary artery, 50% inhibition of maximum reaction, reciprocal logarithm of molar concentration
Protocol: Each of the test drugs was used in a concentration of 10^-9 to 4×10^-4 mole/1000 ml (M). (3) Isolated coronary artery Using the left circumflex branch of a dog, the action of the test drugs on potassium contracture was examined.

[5] = system: potassium contracture, portal vein; experiment: isolated portal vein, action on potassium contracture (Magnus method); settings: dog portal vein, 50% inhibition of maximum reaction, reciprocal logarithm of molar concentration
Protocol: (§2) The activities of the compounds Ia and Ib on various isolated smooth muscles were examined by the Magnus method. Each of the test drugs was used in a concentration of 10^-9 to 4×10^-4 mole/1000 ml (M).
Using an isolated portal vein of a dog, the action of the test drugs on potassium contracture was examined.

[6] = system: potassium contracture, saphenous vein; experiment: isolated saphenous vein, action on potassium contracture (Magnus method); settings: dog saphenous vein, 50% inhibition of maximum reaction, reciprocal logarithm of molar concentration
Protocol: as §2
(5) Isolated saphenous vein
Using an isolated saphenous vein of a dog, the action of the test drugs on potassium contracture was examined.

[7] = system: potassium contracture, mesenteric artery; experiment: isolated mesenteric artery, antagonistic action on potassium contracture (Magnus method); settings: dog mesenteric artery, 50% inhibition of maximum reaction, reciprocal logarithm of molar concentration
Protocol: as §2
(§3) (6) Isolated mesenteric artery
(§4) Using an isolated mesenteric artery of a dog, the antagonistic action of the test drugs on (a) potassium contracture and (b) norepinephirine was examined.

[8] = system: norepinephirine, mesenteric artery; experiment: isolated mesenteric artery, antagonistic action on norepinephrine (Magnus method); settings: dog mesenteric artery, vs norepinephrine; reciprocal logarithm of molar concentration
Protocol: as §2, §3, §4

[9] = system: various isolated smooth muscles; experiment: activities on various isolated smooth muscles, overall (Magnus method)
Protocol: as §2

[10] = 30 mg/kg, controls 22.5 ± 1.4 and (second set) 19.4 ± 4.0
[11] = 30 mg/kg, controls 0.18 ± 0.04 and (second set) 0.21 ± 0.08
[12] = 30 mg/kg, controls 0.53 ± 0.15 and (second set) 0.55 ± 0.14
[13] = 30 mg/kg, controls 3.08 ± 0.27 and (second set) 2.76 ± 0.83

T2 sequence (Q8K4Z4 whole entry): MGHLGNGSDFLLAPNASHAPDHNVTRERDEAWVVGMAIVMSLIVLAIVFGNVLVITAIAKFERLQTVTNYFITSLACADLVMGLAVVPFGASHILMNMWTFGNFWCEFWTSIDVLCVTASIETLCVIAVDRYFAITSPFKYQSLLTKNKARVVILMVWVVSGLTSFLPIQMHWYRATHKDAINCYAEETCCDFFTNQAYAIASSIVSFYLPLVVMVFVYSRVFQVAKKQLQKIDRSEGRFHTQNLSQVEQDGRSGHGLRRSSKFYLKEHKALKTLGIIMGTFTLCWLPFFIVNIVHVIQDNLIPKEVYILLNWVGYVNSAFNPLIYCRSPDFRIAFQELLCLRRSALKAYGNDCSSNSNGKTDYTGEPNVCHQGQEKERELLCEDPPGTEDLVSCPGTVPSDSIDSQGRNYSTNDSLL
T1 sequence (H0W3H1 1-470): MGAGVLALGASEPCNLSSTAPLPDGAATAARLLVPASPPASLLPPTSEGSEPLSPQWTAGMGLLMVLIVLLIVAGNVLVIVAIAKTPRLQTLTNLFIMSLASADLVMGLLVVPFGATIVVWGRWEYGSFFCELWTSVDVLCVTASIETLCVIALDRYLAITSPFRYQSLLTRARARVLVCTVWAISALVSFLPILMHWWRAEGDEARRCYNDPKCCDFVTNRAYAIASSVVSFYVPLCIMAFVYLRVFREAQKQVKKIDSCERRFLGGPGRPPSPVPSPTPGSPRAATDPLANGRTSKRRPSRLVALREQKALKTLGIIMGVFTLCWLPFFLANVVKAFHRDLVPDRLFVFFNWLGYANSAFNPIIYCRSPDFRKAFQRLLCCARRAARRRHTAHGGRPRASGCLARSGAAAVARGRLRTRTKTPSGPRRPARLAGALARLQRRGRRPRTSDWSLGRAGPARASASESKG

Compound	Amount of urine [1, 10]	K/Na [1, 11]	K excreted [1, 12]	Na excreted [1, 13]	(8) Femoral blood flow* [2]	(1) pA2 [3]	(3) pD'2 [4]	(4) pD'2 [5]	(5) pD'2 [6]	(6) (a) pD'2 [7]	(6) (b) pA2 [8]	also measured
CC(C)NCC(O)COc1cccc2ccccc12 (centres unmarked) [Comparative drug I, propranolol hydrochloride, reference compound]	27.8 ± 3.7 mL/kg	0.21 ± 0.04	0.70 ± 0.11 mEq/kg	3.42 ± 0.28 mEq/kg	–	–	–	–	–	–	–	–
NS(=O)(=O)c1cc2c(cc1Cl)NC(C(Cl)Cl)NS2(=O)=O (centres unmarked) [Comparative drug II, trichlormethiazide, reference compound]	34.8 ± 1.7 mL/kg	0.21 ± 0.04	1.12 ± 0.18 mEq/kg	5.36 ± 0.42 mEq/kg	–	–	–	–	–	–	–	–
CC(C)NCC(O)COc1cccc2c1OCC(O[N+](=O)[O-])C2 (centres unmarked) [Compound Ia, 3,4-dihydro-8-[(2-hydroxy-3-isopropylamino)propoxy]-3-nitrato-2H-benzopyran]	31.1 ± 3.2 mL/kg	0.20 ± 0.05	0.91 ± 0.23 mEq/kg	4.18 ± 0.56 mEq/kg	+~-	9.1	6.2-6.3	6.3-6.4	5.8-6.0	5.2-5.3	7.0-7.1	Amount of urine ([1]; 10 mg/kg, control 22.5 ± 1.4): 24.2 ± 2.2 mL/kg; K excreted ([1]; 10 mg/kg, control 0.53 ± 0.15): 0.61 ± 0.20 mEq/kg; Na excreted ([1]; 10 mg/kg, control 3.08 ± 0.27): 3.25 ± 0.18 mEq/kg; Amount of urine ([1]; 100 mg/kg, control 19.4 ± 4.0): 34.0 ± 3.7 mL/kg; K/Na ([1]; 100 mg/kg, control 0.21 ± 0.08): 0.30 ± 0.10; K excreted ([1]; 100 mg/kg, control 0.55 ± 0.14): 0.14 ± 0.45 mEq/kg; Na excreted ([1]; 100 mg/kg, control 2.76 ± 0.83): 3.69 ± 0.33 mEq/kg; K/Na ([1]; control 0.18 ± 0.04): 0.19 ± 0.07; (2) pA2 (isoproterenol, bronchus): 9.1-9.2; β- and α-blocking activities [9]: strong β- and α-blocking activities
CC(C)NCC(O)COc1cccc2c1OCC(CO[N+](=O)[O-])C2 (centres unmarked) [Compound Ib, 3,4-dihydro-8-[(2-hydroxy-3-isopropylamino)propoxy]-3-nitratomethyl-2H-benzopyran]	32.6 ± 4.5 mL/kg	0.21 ± 0.08	0.83 ± 0.36 mEq/kg	3.87 ± 0.64 mEq/kg	+~-	7.83	5.7	6.2	6.2	5.6	6.4	Kb (isoproterenol, bronchus; read-out: (2) pA2 (converted)): 5.13 nM
